Assay results taken from patent publication US20230348376A1 (TEIJIN PHARMA LIMITED, priority 2020, published 2023).
Read-outs that look alike come from different tables or passages of the source.

What was measured:
[1] = Evaluation of brain penetration in mice (blood and brain concentration at brain Cmax); format: in vivo, mouse; settings: C57BL/6J mice; for Kp: male, C57BL/6J, mouse, brain/plasma, po
Outline: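 Male C57BL/6J mice (8 weeks, n=3) dosed orally once at 1 […] mg/kg; plasma and brain collected at 0.25, 0.5, 1, 2, 4 and 8 h. Compound extracted with acetonitrile from brain homogenate and plasma, quantified by LC/MS/MS.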

mouse cuprizone model = experiment: Myelin regeneration promoting action in mouse cuprizone model (LFB staining of corpus callosum); format: in vivo; settings: 2 μg/kg oral once a day, 4 weeks after 6 weeks cuprizone diet; untreated = 100%
Excerpt: C57BL/6J mice (8 weeks old, male) were fed a diet containing 0.3% cuprizone (bis(cyclohexanone)oxaldihydrazone) (Research Diets, Inc. #D17042709) for 6 weeks to induce demyelination. Subsequently, the mice were divided into groups of 8 mice based on the body weight, the diet was switched to a cuprizone-free diet (Research Diets, Inc. #D10001), and administration of the test compound or vehicle was started. […] After administration of 4 weeks, the mice were euthanized, perfused with a 4% paraformaldehyde solution, and then brain sampling was performed. The brain sample obtained was embedded in paraffin to prepare a coronal section specimen at Bregma+1. The specimen was stained with Luxor Fast Blue (LFB) to visualize the myelin sheath, and images were acquired using a fluorescence microscope (KEYENCE #BZ-X710). The corpus callosum area and the LFB staining positive area in the corpus callosum of the obtained pathological specimen image were measured using an image analysis application (KEYENCE #BZ-H3C/BZ-H3XD), and the ratio (LFB staining positive area in the corpus callosum/corpus callosum area) was calculated. The intact group is a non-pathogenic group, and the […] control group were sampled after feeding the diet containing 0.3% cuprizone for 6 weeks.
In the table, the ratio of LFB staining positive area in the corpus callosum/corpus callosum area of the untreated group, fed with the cuprizone-free diet for 6 weeks, was regarded as 100%. As a result, the control group, fed with the cuprizone-containing diet for 6 weeks, decreased the ratio to 23.6%, and was confirmed to progress demyelination. The group, in which the cuprizone-containing diet was fed for 6 weeks and switched to the cuprizone-free diet, and the vehicle was administered, improved the ratio of area of LFB staining positive/area of corpus callosum to 50.1%. […] In addition, GSK239512 described in WO2013/107336 pamphlet was evaluated in the test to show the ratio of LFB staining positive area/corpus callosum area of 45.8%, in which no demyelination regeneration promoting action was shown as compared with the vehicle-administered group.

human VDR = molecular target: T1, human VDR (Homo sapiens, UniProt P11473); experiment: Evaluation of VDR transcription activity in human osteoblasts (HOS cells), luciferase reporter; settings: Activity (EC50, VDR transcription activity), HOS cells transfected with human VDR, human RXRα and DR3 luciferase reporter; 21 hours
T1 sequence (P11473 1-427): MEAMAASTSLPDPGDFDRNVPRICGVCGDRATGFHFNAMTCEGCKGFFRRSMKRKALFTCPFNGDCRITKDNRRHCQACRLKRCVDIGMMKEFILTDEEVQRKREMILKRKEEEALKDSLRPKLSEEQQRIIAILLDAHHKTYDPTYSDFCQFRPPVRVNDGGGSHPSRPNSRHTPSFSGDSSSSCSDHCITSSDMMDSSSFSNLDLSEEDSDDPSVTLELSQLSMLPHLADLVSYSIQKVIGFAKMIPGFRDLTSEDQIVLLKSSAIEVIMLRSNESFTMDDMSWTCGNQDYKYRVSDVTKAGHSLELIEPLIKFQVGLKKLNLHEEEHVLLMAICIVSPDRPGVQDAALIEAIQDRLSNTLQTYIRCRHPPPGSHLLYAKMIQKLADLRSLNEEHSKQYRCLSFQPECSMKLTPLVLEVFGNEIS
T1 sequence (P19793 1-462 partner): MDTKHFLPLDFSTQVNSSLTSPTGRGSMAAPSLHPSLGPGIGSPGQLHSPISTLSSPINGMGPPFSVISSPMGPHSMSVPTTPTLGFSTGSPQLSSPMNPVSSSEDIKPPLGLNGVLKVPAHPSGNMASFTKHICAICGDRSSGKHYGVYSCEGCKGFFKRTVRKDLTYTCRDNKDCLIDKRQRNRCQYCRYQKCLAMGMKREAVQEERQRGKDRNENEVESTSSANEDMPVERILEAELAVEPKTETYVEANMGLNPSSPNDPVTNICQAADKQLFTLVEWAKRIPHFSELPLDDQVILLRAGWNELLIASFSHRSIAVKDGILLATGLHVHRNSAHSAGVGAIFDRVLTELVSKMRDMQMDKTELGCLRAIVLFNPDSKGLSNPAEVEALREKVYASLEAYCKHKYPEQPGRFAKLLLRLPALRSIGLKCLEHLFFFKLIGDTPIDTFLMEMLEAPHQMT

[2] = test system: rat oligodendrocyte progenitor cells; experiment: Promotive activity of rat oligodendrocyte progenitor cell differentiation-1 (MBP gene expression, mRNA); format: cell-based; settings: Rattus norvegicus, Oligodendrocyte progenitor cell, 96 h, read-out: promotive activity at T3 base (MBP gene expression; DMSO 0%, T3 100%), 4 days, MBP/β actin mRNA
Outline: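 Primary OPCs from 1-day-old SD rat forebrain, isolated by shaking off mixed glial cultures and seeded at 2×10^3 cells/well in B27/CNTF (10 ng/mL) differentiation medium with compound. MBP mRNA measured by one-step TaqMan real-time PCR and expressed as MBP/β-actin ratio.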

[3] = test system: mouse neural stem cells (NSCs); experiment: Promoting activity in oligodendrocyte differentiation of mouse neural stem cell (GalC immunostaining); format: cell-based; settings: day 10, N=5
Method: To NSC basal medium (100 mL) included in this product, B27 (1 mL), Penicillin-Streptomycin (1 mL), Glutamine (1 mL), bFGF (20 μL), EGF (10 μL), and Heparin (100 μL) were added to prepare the growth medium. Mouse neural stem cells were reconstituted in a T-25 flask using the growth medium and proliferated as a neurosphere by suspension culture. The cells were expanded by passaging at a split ratio=1:2 in a CO2 incubator (5% CO2, 37° C., wet) to obtain the required number of cells. ACCUTASE (Innovative Cell Technologies, Cat. No. AT104) was used as the passage reagent.
The differentiation medium containing test substance was prepared to a target final concentration by diluting a solution of 20 mM compound in DMSO to 10-fold with DMSO and then to 2×10^5-fold with the differentiation medium. Additive-free differentiation medium for control was prepared by diluting DMSO to 2×10^5-fold with the differentiation medium to be a final concentration of 5×10^−5%.
The mouse neural stem cells were seeded on a poly-L-Lysine/Laminin-coated 96-well plate at a cell density of 2.0×10^4 cells/100 μL/well using the differentiation medium and the culture was started in a CO2 incubator (5% CO2, 37° C., wet). The next day, the medium was replaced with the differentiation medium containing a test substance or an additive-free differentiation medium for control, and evaluation of the test substance (N=5) was started (day 0). The medium was replaced every other day by 60% of the medium in the wells. On day 10, cells were fixed and immunostained.
After the medium was removed, the cells were fixed by adding 100 μL of 4% paraformaldehyde-PBS and being incubated at room temperature for 30 minutes. Next, the cells were washed 3 times with PBS, 100 μL of 5% Goat Serum/PBS was added thereto, and the mixture was incubated at room temperature for 30 minutes to perform blocking and membrane permeation treatment. […] After the cells were washed 3 times with PBS, 100 μL of PBS was added to the wells, and the wells were photographed with fluorescence microscopy. Images were taken under the same condition in all wells, and blue fluorescence and green fluorescence were simultaneously photographed.
Using the hybrid cell counting software provided in the fluorescence microscope (Keyence, BZ-X700), co-localized spots of green fluorescence and blue fluorescence were extracted, and the number of these spots was defined as the total number of GalC-positive cells, and the oligodendrocyte differentiation ratio was calculated by the following calculation:the total number of GalC-positive cells/the number of nuclei (number of blue fluorescence spots). A significant difference test was performed by t-test between the additive-free group and the sample-added group.

[4] = test system: rat oligodendrocyte progenitor cells; experiment: Promotive activity of rat oligodendrocyte progenitor cell differentiation-2 (immunostaining of MBP); format: cell-based; settings: vitamin D derivative 2 μM, T3 30 nM, 4 days
Outline: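 Rat OPCs prepared by shaking in separation medium about 22 h at 37 °C, 200 rpm, and collecting the supernatant.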

[5] = Evaluation of calcium increasing action in normal mice (serum calcium); format: in vivo, mouse; settings: for Serum calcium concentration: repeated oral once a day, 2 weeks, C57BL/6J mice; for Calcium concentration Fluctuation range: vs vehicle 8.9 mg/dL
Method: After acclimatizing C57BL/6J mice (7 weeks old, male) for 1 week, the mice were divided into groups of 5 mice based on the body weight, and administration of the compound or vehicle was started. The administration solution used was a compound (in ethanol) or ethanol diluted 100-fold with 0.1% Trion X-100 (SIGMA #X100-100ML)/saline, and the repeated oral administration at once a day was performed. After administration of 2 weeks, euthanasia was performed by collecting all blood under general anesthesia.

[6] = 0.2 mg/kg single oral dose, n=3
[7] = 0.2 mg/kg, 0.2 mg/kg single oral dose, read-out: Concentration ratio in brain/in blood at brain Cmax

SMILES	EC50 (human VDR) [nM]	activation at 1 µM [2] [%]	Gal/C positive ratio Average value ([3]; 10 nM)	Gal/C positive ratio Average value ([3]; 100 nM)	Gal/C positive ratio Average value ([3]; 1000 nM)	Serum calcium concentration ([5]; 20 μg/kg) [mg/dL]	Calcium concentration Fluctuation range ([5]; 20 μg/kg) [mg/dL]	Serum calcium concentration ([5]; 60 μg/kg) [mg/dL]	Calcium concentration Fluctuation range ([5]; 60 μg/kg) [mg/dL]	Serum calcium concentration ([5]; 200 μg/kg) [mg/dL]	Calcium concentration Fluctuation range ([5]; 200 μg/kg) [mg/dL]	Concentration in blood at brain Cmax [1, 6] [nM]	Concentration in brain at brain Cmax [1, 6] [pmol/g]	Kp [1, 7]	also measured
C[C@H](CN1CC[C@@H](CC(F)F)C1)[C@H]1CC[C@H]2/C(=C/C=C3C[C@@H](O)C[C@H](O)C3)CCC[C@]12C [Compound B043, (1R,3R)-5-(2-((1R,3aS,7aR,E)-1-((S)-1-((S)-3-(2,2-difluoroethyl)pyrrolidin-1-yl)propan-2-yl)-7a-methyloctahydro-4H-inden-4-ylidene)ethylidene)cyclohexane-1,3-diol]	10 to 100														Concentration in blood (mean ± SD) at brain Cmax ([1]; 1 mg/kg single oral dose, n=3): 74 ± 1 nM; Concentration in brain (mean ± SD) at brain Cmax ([1]; 1 mg/kg single oral dose, n=3): 80 ± 9 pmol/g; Kp ([1]; 1 mg/kg, 1 mg/kg single oral dose, read-out: Concentration in brain/in blood ratio at brain Cmax): 1.08; Ratio (%): area of LFB staining positive/area of corpus callosum, mean (mouse cuprizone model): 84.9%
C[C@H](CCN1CCOC[C@@H]1C)[C@H]1CC[C@H]2/C(=C/C=C3C[C@@H](O)C[C@H](O)C3)CCC[C@]12C [Compound D043, (1R,3R)-5-(2-((1R,3aS,7aR,E)-7a-methyl-1-((R)-4-((S)-3-methylmorpholino)butan-2-yl)octahydro-4H-inden-4-ylidene)ethylidene)cyclohexane-1,3-diol]		≥ 20	12.81	12.27	16.09										
C[C@H](CCCN1CCOCC1)[C@H]1CC[C@H]2/C(=C/C=C3C[C@@H](O)C[C@H](O)C3)CCC[C@]12C [Compound D044, (1R,3R)-5-(2-((1R,3aS,7aR,E)-7a-methyl-1-((R)-5-morpholinopentan-2-yl)octahydro-4H-inden-4-ylidene)ethylidene)cyclohexane-1,3-diol]	1 to 10	≥ 20	9.10	8.22	12.37										
C[C@H](CN1CCOC[C@@H]1C)[C@H]1CC[C@H]2/C(=C/C=C3C[C@@H](O)C[C@H](O)C3)CCC[C@]12C [Compound G004, (1R,3R)-5-(2-((1R,3aS,7aR,E)-7a-methyl-1-((S)-1-((S)-3-methylmorpholino)propan-2-yl)octahydro-4H-inden-4-ylidene)ethylidene)cyclohexane-1,3-diol]						8.9	0	8.8	-0.1	9.0	0.1	72.2 ± 10.4	171.2 ± 37.4	2.35	Mean (number of MBP-positive cells/number of Hoechst33342-positive cells) ([4]; Test 3): 0.27
C[C@H](CN1CCOCC1(C)C)[C@H]1CC[C@H]2/C(=C/C=C3C[C@@H](O)C[C@H](O)C3)CCC[C@]12C [Compound G006, (1R,3R)-5-(2-((1R,3aS,7aR,E)-1-((S)-1-(3,3-dimethylmorpholino)propan-2-yl)-7a-methyloctahydro-4H-inden-4-ylidene)ethylidene)cyclohexane-1,3-diol]						8.9	0	8.9	0	8.6	-0.3	58.9 ± 0.5	137.8 ± 11.5	2.38	Mean (number of MBP-positive cells/number of Hoechst33342-positive cells) ([4]; Test 4): 0.50
